Assay results published in PMC6423038, “Deferiprone: Pan-selective Histone Lysine Demethylase Inhibition Activity and Structure Activity Relationship Study” (Scientific Reports, 2019).
pIC50: −log10 of the molar value.

How the values were obtained:
[1] = target: T1, KDM6A (UTX) (Homo sapiens, UniProt O15550); assay: KDM cell-free assay (AlphaScreen, BPS Bioscience); type: biochemical; settings: recombinant human KDM6A (UTX); read-out: IC50
T1 construct: purchased BPS Bioscience

[2] = target: KDM5B (Jarid1B) (Homo sapiens, UniProt Q9UGL1); assay: KDM cell-free assay (AlphaScreen, BPS Bioscience)
[3] = target: KDM3B (JMJD1B) (Homo sapiens, UniProt Q7LBC6); assay: KDM cell-free assay (AlphaScreen, BPS Bioscience)
[4] = target: T2, KDM4A (JMJD2A) (Homo sapiens, UniProt O75164); assay: KDM cell-free assay (AlphaScreen, BPS Bioscience); type: biochemical; settings: recombinant human KDM4A (JMJD2A); max tested 25 μM
T2 construct: purchased BPS Bioscience

[5] = target: KDM4E (JMJD2E) (Homo sapiens, UniProt B2RXH2); assay: KDM cell-free assay (AlphaScreen, BPS Bioscience)
[6] = target: KDM1A (LSD1) (Homo sapiens, UniProt O60341); assay: KDM cell-free assay (AlphaScreen, BPS Bioscience)
[7] = target: KDM5A (Jarid1A) (Homo sapiens, UniProt P29375); assay: KDM cell-free assay (AlphaScreen, BPS Bioscience)
[8] = target: KDM3A (JMJD1A) (Homo sapiens, UniProt Q9Y4C1); assay: KDM cell-free assay (AlphaScreen, BPS Bioscience)
[9] = tested on: VERO; assay: Cell viability assay (MTS), antiproliferative activity; type: cell-based; settings: Chlorocebus sabaeus, 72 h, Table 4
Method: (§1) To preliminarily profile the bioactivity of these compounds, we adopted a streamlined approach which involved screening against KDM6A at two concentrations and evaluating antiproliferative activity against three representative cell lines – MCF-7 (ER(+) BCa), MDA-MB-231 (TNBC BCa) and Vero (a non-transformed cell line as control).
(§2) The In vitro proliferation assay was performed as reported previously[15],[16]. Detailed description of the protocol used is included in the Supplementary Information.
(§3) Cell Viability Assay. All cell lines were purchased form ATCC (Manassas, VA), and they were routinely cultured in different media recommended by the supplier. MCF-7 cells were cultured in non-phenol red DMEM (Corning, Manassas, VA) fortified with 10% charcoal treated fetal bovine serum (FBS; Atlanta Biologicals, GA) and 0.2 mM glutamine (Corning, Manassas, VA), whereas MDA-MB-231, DU-145, and Vero were cultured in DMEM with 10% FBS. […] After 24 h incubation in 37 °C under 5% CO2, cells were treated with serially diluted ligands with final DMSO concentration of 1% and incubated for additional 72 h. MTS (CellTiter 96 Aqueous One Solution Cell Proliferation Assays, Promega, Madison, WI) was added to each well 2.5 h prior to recording the absorbance at 490 nm.

[10] = tested on: MCF-7; assay: as above; type: cell-based; settings: Homo sapiens, MCF7, 72 h, Table 4
Method: as §1, §2, §3

[11] = tested on: MDA-MB-231; assay: as above; type: cell-based; settings: Homo sapiens, 72 h, Table 4
Method: as §1, §2, §3

Chain of KDM4E (JMJD2E) (B2RXH2 whole entry): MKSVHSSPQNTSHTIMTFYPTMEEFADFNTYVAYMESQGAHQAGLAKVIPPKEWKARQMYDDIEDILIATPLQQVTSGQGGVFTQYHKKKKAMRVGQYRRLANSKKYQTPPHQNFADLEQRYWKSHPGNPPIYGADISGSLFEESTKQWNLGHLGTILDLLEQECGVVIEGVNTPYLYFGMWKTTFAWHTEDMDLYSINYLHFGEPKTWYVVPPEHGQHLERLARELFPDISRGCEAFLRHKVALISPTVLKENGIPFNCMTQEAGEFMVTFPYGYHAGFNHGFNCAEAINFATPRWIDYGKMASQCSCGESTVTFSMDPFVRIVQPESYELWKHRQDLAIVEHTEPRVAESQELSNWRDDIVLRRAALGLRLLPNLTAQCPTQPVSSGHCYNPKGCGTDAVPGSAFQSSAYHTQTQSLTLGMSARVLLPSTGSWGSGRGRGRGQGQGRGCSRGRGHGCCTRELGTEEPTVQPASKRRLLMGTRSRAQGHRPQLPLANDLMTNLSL
T2 sequence (O75164 whole entry): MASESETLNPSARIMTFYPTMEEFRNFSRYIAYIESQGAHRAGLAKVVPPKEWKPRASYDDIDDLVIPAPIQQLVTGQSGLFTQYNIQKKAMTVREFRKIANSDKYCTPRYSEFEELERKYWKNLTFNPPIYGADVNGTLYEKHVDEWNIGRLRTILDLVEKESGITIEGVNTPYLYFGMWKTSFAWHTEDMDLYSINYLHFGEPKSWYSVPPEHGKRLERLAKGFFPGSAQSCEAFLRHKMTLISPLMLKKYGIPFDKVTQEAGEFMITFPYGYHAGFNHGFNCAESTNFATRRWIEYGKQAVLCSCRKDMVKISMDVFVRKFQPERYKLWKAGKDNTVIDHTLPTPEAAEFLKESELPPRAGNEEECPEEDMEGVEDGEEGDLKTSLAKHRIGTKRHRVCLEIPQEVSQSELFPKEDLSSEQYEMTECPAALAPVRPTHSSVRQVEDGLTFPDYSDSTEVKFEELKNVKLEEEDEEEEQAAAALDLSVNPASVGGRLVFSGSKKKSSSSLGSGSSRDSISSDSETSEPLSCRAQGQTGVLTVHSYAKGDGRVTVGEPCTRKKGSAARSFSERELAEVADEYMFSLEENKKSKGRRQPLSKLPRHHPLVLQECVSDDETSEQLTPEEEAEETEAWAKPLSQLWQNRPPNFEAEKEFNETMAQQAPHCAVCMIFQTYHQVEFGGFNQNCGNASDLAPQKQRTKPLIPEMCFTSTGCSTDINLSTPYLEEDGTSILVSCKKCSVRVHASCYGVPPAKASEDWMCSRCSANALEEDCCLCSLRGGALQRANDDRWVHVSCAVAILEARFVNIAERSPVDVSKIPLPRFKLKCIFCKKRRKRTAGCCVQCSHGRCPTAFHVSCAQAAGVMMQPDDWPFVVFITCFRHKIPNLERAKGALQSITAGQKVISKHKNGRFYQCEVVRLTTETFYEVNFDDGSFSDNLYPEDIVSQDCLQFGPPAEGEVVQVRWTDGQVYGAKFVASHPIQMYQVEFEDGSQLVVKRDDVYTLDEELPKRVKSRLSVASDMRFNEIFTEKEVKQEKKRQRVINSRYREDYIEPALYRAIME
Chain of KDM3B (JMJD1B) (Q7LBC6 whole entry): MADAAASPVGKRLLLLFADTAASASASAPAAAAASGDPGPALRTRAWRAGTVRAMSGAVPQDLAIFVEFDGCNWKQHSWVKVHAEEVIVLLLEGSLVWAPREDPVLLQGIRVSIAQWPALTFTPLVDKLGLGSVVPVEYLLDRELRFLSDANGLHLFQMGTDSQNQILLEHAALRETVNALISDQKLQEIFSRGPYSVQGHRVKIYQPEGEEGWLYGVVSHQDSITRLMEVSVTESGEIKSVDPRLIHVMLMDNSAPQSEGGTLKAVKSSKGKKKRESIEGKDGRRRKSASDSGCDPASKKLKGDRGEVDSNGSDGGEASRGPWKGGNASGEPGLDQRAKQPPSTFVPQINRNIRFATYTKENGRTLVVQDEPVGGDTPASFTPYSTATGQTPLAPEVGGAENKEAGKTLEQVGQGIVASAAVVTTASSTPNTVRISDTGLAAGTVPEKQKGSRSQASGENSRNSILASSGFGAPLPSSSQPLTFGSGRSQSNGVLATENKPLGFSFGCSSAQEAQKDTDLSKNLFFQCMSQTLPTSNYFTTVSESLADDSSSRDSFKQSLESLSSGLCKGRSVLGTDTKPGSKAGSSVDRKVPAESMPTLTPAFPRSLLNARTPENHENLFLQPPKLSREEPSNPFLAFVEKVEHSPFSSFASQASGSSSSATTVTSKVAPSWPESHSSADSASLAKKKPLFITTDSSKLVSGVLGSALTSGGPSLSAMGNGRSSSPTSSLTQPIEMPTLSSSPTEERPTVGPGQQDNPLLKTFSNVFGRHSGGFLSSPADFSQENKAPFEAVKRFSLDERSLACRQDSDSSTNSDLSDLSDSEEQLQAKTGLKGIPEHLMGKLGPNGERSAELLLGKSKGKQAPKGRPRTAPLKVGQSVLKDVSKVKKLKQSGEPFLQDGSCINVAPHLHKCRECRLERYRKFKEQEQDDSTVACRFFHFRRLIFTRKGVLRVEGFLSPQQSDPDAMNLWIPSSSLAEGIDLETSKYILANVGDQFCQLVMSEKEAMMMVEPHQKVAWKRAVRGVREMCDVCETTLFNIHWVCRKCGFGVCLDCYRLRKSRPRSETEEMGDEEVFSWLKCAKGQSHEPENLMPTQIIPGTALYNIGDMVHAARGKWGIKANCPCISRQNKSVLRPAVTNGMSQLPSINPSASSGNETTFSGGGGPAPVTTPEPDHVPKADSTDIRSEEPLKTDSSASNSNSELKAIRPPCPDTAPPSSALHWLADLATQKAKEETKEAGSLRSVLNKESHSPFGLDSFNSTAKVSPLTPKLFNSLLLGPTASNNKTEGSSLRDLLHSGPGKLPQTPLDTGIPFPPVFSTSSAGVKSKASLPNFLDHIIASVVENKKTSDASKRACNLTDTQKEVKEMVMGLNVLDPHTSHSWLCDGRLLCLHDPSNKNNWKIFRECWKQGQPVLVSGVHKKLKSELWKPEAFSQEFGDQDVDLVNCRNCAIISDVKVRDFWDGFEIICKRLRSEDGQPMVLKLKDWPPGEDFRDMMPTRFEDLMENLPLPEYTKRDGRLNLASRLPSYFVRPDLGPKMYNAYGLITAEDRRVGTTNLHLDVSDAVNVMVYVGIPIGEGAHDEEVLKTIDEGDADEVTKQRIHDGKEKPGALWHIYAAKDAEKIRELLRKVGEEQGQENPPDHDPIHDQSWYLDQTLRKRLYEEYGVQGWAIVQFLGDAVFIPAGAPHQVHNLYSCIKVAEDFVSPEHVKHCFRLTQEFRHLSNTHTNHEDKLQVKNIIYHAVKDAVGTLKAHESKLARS
T1 sequence (O15550 whole entry): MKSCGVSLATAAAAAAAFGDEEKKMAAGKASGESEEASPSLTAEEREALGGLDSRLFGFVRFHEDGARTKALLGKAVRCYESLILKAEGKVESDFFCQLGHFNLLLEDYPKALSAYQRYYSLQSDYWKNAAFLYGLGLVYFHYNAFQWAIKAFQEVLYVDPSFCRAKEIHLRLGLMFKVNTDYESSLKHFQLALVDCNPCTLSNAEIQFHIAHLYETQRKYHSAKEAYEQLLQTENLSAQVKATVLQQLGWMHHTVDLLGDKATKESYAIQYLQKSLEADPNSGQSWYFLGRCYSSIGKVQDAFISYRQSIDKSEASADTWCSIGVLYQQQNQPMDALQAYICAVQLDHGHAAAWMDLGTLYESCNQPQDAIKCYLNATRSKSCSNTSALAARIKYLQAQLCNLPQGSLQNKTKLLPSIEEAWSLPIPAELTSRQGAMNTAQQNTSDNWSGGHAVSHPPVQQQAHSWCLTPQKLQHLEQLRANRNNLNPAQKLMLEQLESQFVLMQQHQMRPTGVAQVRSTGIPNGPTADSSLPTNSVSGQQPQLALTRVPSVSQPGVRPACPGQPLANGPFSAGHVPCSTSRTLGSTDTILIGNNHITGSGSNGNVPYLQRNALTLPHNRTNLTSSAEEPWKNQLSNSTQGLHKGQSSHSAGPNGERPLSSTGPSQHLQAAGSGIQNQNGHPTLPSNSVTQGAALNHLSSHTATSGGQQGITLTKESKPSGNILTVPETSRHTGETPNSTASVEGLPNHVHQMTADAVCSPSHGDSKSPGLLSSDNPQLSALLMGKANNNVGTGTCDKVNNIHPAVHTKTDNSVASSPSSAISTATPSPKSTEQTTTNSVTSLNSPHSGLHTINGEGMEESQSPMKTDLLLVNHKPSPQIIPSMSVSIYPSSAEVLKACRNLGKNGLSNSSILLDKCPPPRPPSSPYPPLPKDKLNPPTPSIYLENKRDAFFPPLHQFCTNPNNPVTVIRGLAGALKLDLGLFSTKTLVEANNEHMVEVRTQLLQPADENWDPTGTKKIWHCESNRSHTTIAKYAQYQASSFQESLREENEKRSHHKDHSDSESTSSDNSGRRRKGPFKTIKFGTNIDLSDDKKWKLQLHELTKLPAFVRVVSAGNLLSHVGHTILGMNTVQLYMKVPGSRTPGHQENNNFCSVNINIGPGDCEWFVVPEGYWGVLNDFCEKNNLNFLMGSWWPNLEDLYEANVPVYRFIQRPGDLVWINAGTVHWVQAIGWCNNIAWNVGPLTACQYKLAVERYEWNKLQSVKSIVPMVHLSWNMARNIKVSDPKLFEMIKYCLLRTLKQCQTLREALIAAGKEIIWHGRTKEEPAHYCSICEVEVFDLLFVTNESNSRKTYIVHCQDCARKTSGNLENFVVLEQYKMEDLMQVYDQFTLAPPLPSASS

Question: Cc1c(O)c(=O)ccn1C [DFP, Deferiprone] was tested. Which pIC50 [1] did it give?
Answer: The pIC50 was 5.38.

Question: And the pIC50 [2]?
Answer: The pIC50 was < 4.60.

Question: What about the pIC50 [3] of the same compound?
Answer: Its pIC50 is < 4.60.

Question: What about the pIC50 [4] of the same compound?
Answer: The pIC50 was < 4.60.

Question: And the pIC50 [5]?
Answer: The pIC50 was < 4.60.

Question: What about the pIC50 [6] of the same compound?
Answer: Its pIC50 is < 4.60.

Question: What about the pIC50 [7] of the same compound?
Answer: Its pIC50 is < 4.60.

Question: What about the pIC50 [8] of the same compound?
Answer: Its pIC50 is < 4.60.

Question: What about the pIC50 [9] of the same compound?
Answer: The pIC50 was 4.07.

Question: And the pIC50 [10]?
Answer: The pIC50 was 3.87.

Question: And the pIC50 [11]?
Answer: The pIC50 was 3.95.
